Assays:
[1] = target: T1, GABAA2 receptors (α2, β3, γ2 receptor subunits transfected into Sf9 cells) (Homo sapiens, UniProt P18507+P47869); assay: GABAA2 Binding Method ([3H]-Flunitrazepam displacement); settings: [3H]-Flunitrazepam ~2 nM, α2β3γ2 Sf9 membranes, 1 hr at 4° C.
T1 construct: host or cells: Sf9 cells (membranes)
How it was run: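 Membranes from Sf9 cells expressing α2β3γ2 GABAA receptors incubated with ~2 nM (final) [3H]-flunitrazepam and test compound 1 h at 4 °C, then filtered on GF/B plates with cold-buffer washes. Flumazenil-defined controls; percent of control, IC50 and Ki calculated.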

GABAA receptor α2β3γ2 = target: T2, GABAA receptor α2β3γ2 (Homo sapiens, UniProt P18507+P47869); assay: Two-electrode voltage-clamp potentiation of GABA EC10 current in Xenopus oocytes, GABAA2; assay type: cell-based; settings: percentage potentiation of GABA EC10 current divided by that of diazepam
T2 construct: expressed in transfected cells; host or cells: Xenopus laevis oocytes injected with cRNA
How it was run: (§1)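 Human GABAA receptors expressed in Xenopus oocytes by cRNA injection (α:β:γ molar ratio ~1:1:10 for α1β2γ2, 1:1:1 for α2β3γ2), recorded 2-10 days later by two-electrode voltage clamp at −60 mV in ND-96, pH 7.5. Modulator preapplied 30 s before GABA at per-oocyte EC10. Peak-current percent potentiation over GABA alone, normalised to diazepam.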

GABAA receptor α1β2γ2 = target: T3, GABAA receptor α1β2γ2 (Homo sapiens, UniProt P14867+P18507); assay: Two-electrode voltage-clamp potentiation of GABA EC10 current in Xenopus oocytes, GABAA1; assay type: cell-based; settings: percentage potentiation of GABA EC10 current divided by that of diazepam
T3 construct: expressed in transfected cells; host or cells: Xenopus laevis oocytes injected with cRNA
How it was run: as §1

[2] = listed as 9-amino-2-cyclobutyl-5-(2-fluoro-6-methoxyphenyl)-2,3-dihydro-1H-pyrrolo[3,4-b]q

T3 sequence (P14867 28-456): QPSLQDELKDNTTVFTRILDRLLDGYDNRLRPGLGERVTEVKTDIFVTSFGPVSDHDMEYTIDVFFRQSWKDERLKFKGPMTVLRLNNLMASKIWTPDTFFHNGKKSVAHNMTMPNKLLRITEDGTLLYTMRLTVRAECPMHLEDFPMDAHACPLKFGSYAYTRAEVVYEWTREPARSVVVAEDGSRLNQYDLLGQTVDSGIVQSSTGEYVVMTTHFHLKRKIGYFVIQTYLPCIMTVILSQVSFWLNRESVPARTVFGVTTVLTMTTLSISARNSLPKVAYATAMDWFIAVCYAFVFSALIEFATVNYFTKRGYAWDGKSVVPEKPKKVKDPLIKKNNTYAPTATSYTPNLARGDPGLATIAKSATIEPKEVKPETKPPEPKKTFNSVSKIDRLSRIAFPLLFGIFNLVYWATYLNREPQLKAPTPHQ
T3 sequence (P47870 25-512 partner limits assumed): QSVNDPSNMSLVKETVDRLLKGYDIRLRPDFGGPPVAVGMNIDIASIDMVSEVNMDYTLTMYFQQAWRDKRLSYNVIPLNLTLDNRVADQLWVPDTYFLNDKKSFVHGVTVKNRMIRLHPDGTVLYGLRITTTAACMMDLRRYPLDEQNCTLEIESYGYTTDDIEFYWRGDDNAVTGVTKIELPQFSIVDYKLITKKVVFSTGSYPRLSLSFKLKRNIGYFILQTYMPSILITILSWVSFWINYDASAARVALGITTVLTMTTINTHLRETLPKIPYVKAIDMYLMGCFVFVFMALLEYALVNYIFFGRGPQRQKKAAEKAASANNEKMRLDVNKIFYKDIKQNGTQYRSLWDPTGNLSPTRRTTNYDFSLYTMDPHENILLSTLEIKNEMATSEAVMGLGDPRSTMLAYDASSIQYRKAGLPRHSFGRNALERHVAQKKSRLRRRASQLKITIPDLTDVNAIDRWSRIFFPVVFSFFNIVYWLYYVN
T3 sequence (P18507 40-475): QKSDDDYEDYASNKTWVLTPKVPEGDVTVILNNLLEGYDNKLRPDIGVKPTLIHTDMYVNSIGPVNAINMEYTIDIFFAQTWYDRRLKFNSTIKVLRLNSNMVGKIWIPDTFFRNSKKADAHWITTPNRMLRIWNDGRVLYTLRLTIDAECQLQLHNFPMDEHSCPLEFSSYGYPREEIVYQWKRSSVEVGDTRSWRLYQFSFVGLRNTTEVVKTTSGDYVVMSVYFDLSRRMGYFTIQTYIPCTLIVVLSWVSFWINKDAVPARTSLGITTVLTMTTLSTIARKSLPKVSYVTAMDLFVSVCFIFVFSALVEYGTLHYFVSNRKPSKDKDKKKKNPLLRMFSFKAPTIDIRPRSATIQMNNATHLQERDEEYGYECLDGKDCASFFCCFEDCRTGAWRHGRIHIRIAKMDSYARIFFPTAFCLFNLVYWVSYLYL
T2 sequence (P47869 29-451): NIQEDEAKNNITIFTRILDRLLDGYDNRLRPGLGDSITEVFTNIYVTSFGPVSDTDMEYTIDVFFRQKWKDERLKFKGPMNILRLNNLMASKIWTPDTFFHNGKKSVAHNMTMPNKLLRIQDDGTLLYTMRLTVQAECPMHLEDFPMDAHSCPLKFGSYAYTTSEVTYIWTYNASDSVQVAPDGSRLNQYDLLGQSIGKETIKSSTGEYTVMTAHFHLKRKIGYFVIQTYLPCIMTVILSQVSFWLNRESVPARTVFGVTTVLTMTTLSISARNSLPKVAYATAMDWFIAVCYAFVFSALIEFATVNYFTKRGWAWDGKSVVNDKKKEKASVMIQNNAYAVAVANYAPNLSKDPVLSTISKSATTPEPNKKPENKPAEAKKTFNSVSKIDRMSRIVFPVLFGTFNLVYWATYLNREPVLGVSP
T2 sequence (P28472 26-473 partner): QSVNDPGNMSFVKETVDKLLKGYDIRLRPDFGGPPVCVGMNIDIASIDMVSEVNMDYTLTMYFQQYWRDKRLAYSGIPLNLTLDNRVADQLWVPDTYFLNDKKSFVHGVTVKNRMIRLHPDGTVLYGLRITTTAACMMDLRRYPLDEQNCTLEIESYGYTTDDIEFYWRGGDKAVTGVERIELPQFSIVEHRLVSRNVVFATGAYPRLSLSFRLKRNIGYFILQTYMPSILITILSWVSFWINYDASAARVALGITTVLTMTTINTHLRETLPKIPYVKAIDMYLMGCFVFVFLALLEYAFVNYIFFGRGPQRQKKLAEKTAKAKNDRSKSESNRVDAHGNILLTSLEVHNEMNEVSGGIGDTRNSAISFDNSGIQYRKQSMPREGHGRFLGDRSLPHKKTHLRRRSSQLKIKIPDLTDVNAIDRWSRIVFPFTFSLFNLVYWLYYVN
T2 sequence (P18507 40-475): as the sequence (P18507 40-475) above
T1 sequence (P47869 29-451): as the sequence (P47869 29-451) above
T1 sequence (P28472 26-473 partner): as the sequence (P28472 26-473 partner) above
T1 sequence (P18507 40-475): as the sequence (P18507 40-475) above

Ki [1] [nM] | Relative Potentiation for GABAA2 (GABAA receptor α2β3γ2) | Relative Potentiation for GABAA1 (GABAA receptor α1β2γ2) | Relative Potentiation for GABAA2 (GABAA receptor α2β3γ2; [2]) | Relative Potentiation for GABAA1 (GABAA receptor α1β2γ2; [2]) | SMILES
1.62 |  |  | 0.2 | −0.07 | COc1cccc(F)c1-c1cccc2c(N)c3c(nc12)CN(C1CCC1)C3=O [Example 18, 9-Amino-2-cyclobutyl-5-(2-fluoro-6-methoxyphenyl)-2,3-dihydropyrrolo[3,4-b]quinolin-1-one]
18.2 | 0.14 | 0.07 |  |  | COc1cccc(-c2cccc3c(N)c4c(nc23)CN(C2CC2)C4=O)c1F [Example 22, 9-Amino-2-cyclopropyl-5-(2-fluoro-3-methoxyphenyl)-2,3-dihydropyrrolo[3,4-b]quinolin-1-one]
2.59 | 0.24 | −0.075 |  |  | COc1cccc(F)c1-c1c(F)ccc2c(N)c3c(nc12)CN(C1CC1)C3=O [Example 35, 9-Amino-2-cyclopropyl-6-fluoro-5-(2-fluoro-6-methoxyphenyl)-2,3-dihydropyrrolo[3,4-b]quinolin-1-one]
2.59 | 0.26 | 0.11 |  |  | COc1ncccc1-c1c(F)ccc2c(N)c3c(nc12)CN(C1CC1)C3=O [Example 38, 9-Amino-2-cyclopropyl-6-fluoro-5-(2-methoxypyridin-3-yl)-2,3-dihydropyrrolo[3,4-b]quinolin-1-one]
2.35 | 0.28 | 0.13 |  |  | COc1ccncc1-c1c(F)ccc2c(N)c3c(nc12)CN(C1CC1)C3=O [Example 41, 9-Amino-2-cyclopropyl-6-fluoro-5-(4-methoxypyridin-3-yl)-2,3-dihydropyrrolo[3,4-b]quinolin-1-one]
6.64 | 0.35 | 0.13 |  |  | COc1ncc(-c2c(F)ccc3c(N)c4c(nc23)CN(C2CC2)C4=O)c(OC)n1 [Example 44, 9-Amino-2-cyclopropyl-5-(2,4-dimethoxypyrimidin-5-yl)-6-fluoro-2,3-dihydropyrrolo[3,4-b]quinolin-1-one]
13.2 | 0.26 | −0.11 |  |  | CCN1Cc2nc3c(-c4ccccc4OC)c(F)ccc3c(N)c2C1=O [Example 45, 9-Amino-2-ethyl-6-fluoro-5-(2-methoxyphenyl)-2,3-dihydropyrrolo[3,4-b]quinolin-1-one]
17.3 | 0.3 | −0.008 |  |  | CCN1Cc2nc3c(-c4cc(F)ccc4OC)c(F)ccc3c(N)c2C1=O [Example 46, 9-Amino-2-ethyl-6-fluoro-5-(5-fluoro-2-methoxyphenyl)-2,3-dihydropyrrolo[3,4-b]quinolin-1-one]
2.53 | 0.58 | 0.12 |  |  | COc1ccc(Cl)cc1-c1cccc2c(N)c3c(nc12)CN(C1CCC1)C3=O [Example 49, 9-Amino-5-(5-chloro-2-methoxyphenyl)-2-cyclobutyl-2,3-dihydropyrrolo[3,4-b]quinolin-1-one]
21.4 | 0.26 | 0.079 |  |  | CCN1Cc2nc3c(-c4cnccc4OC)cccc3c(N)c2C1=O [Example 57, 9-Amino-2-ethyl-5-(4-methoxypyridin-3-yl)-2,3-dihydropyrrolo[3,4-b]quinolin-1-one]

Continued, compound first:

SMILES | Ki [1] [nM] | Relative Potentiation for GABAA2 (GABAA receptor α2β3γ2) | Relative Potentiation for GABAA1 (GABAA receptor α1β2γ2) | Relative Potentiation for GABAA2 (GABAA receptor α2β3γ2; [2]) | Relative Potentiation for GABAA1 (GABAA receptor α1β2γ2; [2])
CCCN1Cc2nc3c(-c4cnc(OC)cc4C)cccc3c(N)c2C1=O [Example 12, 9-Amino-5-(6-methoxy-4-methylpyridin-3-yl)-2-propyl-2,3-dihydropyrrolo[3,4-b]quinolin-1-one] | 50.6 | 0.23 | 0.17 |  | 
CCCN1Cc2nc3c(-c4cccnc4F)cccc3c(N)c2C1=O [Example 13, 9-Amino-5-(2-fluoropyridin-3-yl)-2-propyl-2,3-dihydropyrrolo[3,4-b]quinolin-1-one] | 26.7 | 0.37 | 0.21 |  | 
COc1ccc(C)cc1-c1cccc2c(N)c3c(nc12)CN(Cc1ccc2c(c1)OCO2)C3=O [Example 14, 9-Amino-2-benzo[1,3]dioxol-5-ylmethyl-5-(2-methoxy-5-methylphenyl)-2,3-dihydropyrrolo[3,4-b]quinolin-1-one] | 15.5 | 0.37 | 0.22 |  | 
CCCN1Cc2nc3c(-c4ccc(C)nc4Cl)cccc3c(N)c2C1=O [Example 15, 9-Amino-5-(2-chloro-6-methylpyridin-3-yl)-2-propyl-2,3-dihydropyrrolo[3,4-b]quinolin-1-one] | 7.06 | 0.87 | 0.29 |  | 
CCN1Cc2nc3c(-c4c(F)cccc4OC)cccc3c(N)c2C1=O [Example 17, 9-Amino-2-ethyl-5-(2-fluoro-6-methoxyphenyl)-2,3-dihydropyrrolo[3,4-b]quinolin-1-one] | 4.36 | 0.15 | −0.11 |  | 
CCN1Cc2nc3c(-c4cccnc4OC)cccc3c(N)c2C1=O [Example 19, 9-Amino-2-ethyl-5-(2-methoxypyridin-3-yl)-2,3-dihydropyrrolo[3,4-b]quinolin-1-one] | 24.2 | 0.28 | 0.022 |  | 
COc1cccc(F)c1-c1cccc2c(N)c3c(nc12)CN(C)C3=O [Example 20, 9-Amino-5-(2-fluoro-6-methoxyphenyl)-2-methyl-2,3-dihydropyrrolo[3,4-b]quinolin-1-one] | 18.8 | 0.26 | 0.046 |  | 
COc1ccc(CN2Cc3nc4c(-c5ccc(C)nc5Cl)cccc4c(N)c3C2=O)cc1OC [Example 23, 9-Amino-5-(2-chloro-6-methylpyridin-3-yl)-2-(3,4-dimethoxybenzyl)-2,3-dihydropyrrolo[3,4-b]quinolin-1-one] | 4.36 | 0.34 | 0.11 |  | 
CCCN1Cc2nc3c(-c4ccc(OC)nc4OC)c(F)ccc3c(N)c2C1=O [Example 24, 9-Amino-5-(2,6-dimethoxypyridin-3-yl)-6-fluoro-2-propyl-2,3-dihydropyrrolo[3,4-b]quinolin-1-one] | 2.94 | 0.35 | 0.15 |  | 
CCN1Cc2nc3c(-c4ccccc4C#N)cccc3c(N)c2C1=O [Example 25, 2-(9-Amino-2-ethyl-1-oxo-2,3-dihydro-1H-pyrrolo[3,4-b]quinolin-5-yl)-benzonitrile] | 14.1 | 0.17 | −0.11 |  | 
CCN1Cc2nc3c(-c4ccc(OC)nc4OC)c(F)ccc3c(N)c2C1=O [Example 26, 9-Amino-5-(2,6-dimethoxypyridin-3-yl)-2-ethyl-6-fluoro-2,3-dihydropyrrolo[3,4-b]quinolin-1-one] | 8.96 | 0.18 | 0.062 |  | 
CCN1Cc2nc3c(-c4ccc(OC)c(OC)c4)cccc3c(N)c2C1=O [Example 29, 9-Amino-2-ethyl-5-(3,4-dimethoxyphenyl)-2,3-dihydropyrrolo[3,4-b]quinolin-1-one] | 21.4 | 0.19 | 0.07 |  | 
CCN1Cc2nc3c(-c4ccc(F)cc4OC)cccc3c(N)c2C1=O [Example 32, 9-Amino-2-ethyl-5-(4-fluoro-2-methoxyphenyl)-2,3-dihydropyrrolo[3,4-b]quinolin-1-one] | 22.1 | 0.2 | −0.05 |  | 
CCN1Cc2nc3c(-c4cccc(OC)c4F)cccc3c(N)c2C1=O [Example 33, 9-Amino-2-ethyl-5-(2-fluoro-3-methoxyphenyl)-2,3-dihydropyrrolo[3,4-b]quinolin-1-one] | 9.93 | 0.21 | 0.01 |  | 
COc1ccc(OC)c(CN2Cc3nc4c(-c5cnccc5OC)cccc4c(N)c3C2=O)c1 [Example 39, 9-Amino-2-(2,5-dimethoxybenzyl)-5-(4-methoxypyridin-3-yl)-2,3-dihydropyrrolo[3,4-b]quinolin-1-one] | 5.11 | 0.26 | 0.18 |  | 
CCN1Cc2nc3c(-c4ccc(OC)c(OC)c4)c(F)ccc3c(N)c2C1=O [Example 47, 9-Amino-5-(3,4-dimethoxyphenyl)-2-ethyl-6-fluoro-2,3-dihydropyrrolo[3,4-b]quinolin-1-one] | 4.52 | 0.27 | 0.068 |  | 
COc1ccc(-c2cccc3c(N)c4c(nc23)CN(C2CCC2)C4=O)c(OC)c1 [Example 53, 9-Amino-2-cyclobutyl-5-(2,4-dimethoxyphenyl)-2,3-dihydropyrrolo[3,4-b]quinolin-1-one] | 2.13 | 0.24 | 0.1 |  | 
CCCN1Cc2nc3c(-c4c(F)cccc4F)cccc3c(N)c2C1=O [Example 56, 9-Amino-5-(2,6-difluorophenyl)-2-propyl-2,3-dihydro-pyrrolo[3,4-b]quinolin-1-one] | 4.98 | 0.24 | 0.083 |  | 
